# Measured values: publication PMC8034185, “The rumen eukaryotome is a source of novel antimicrobial peptides with therapeutic potential” (BMC Microbiology, 2021)
# Ends that are not written are not given here.
# Tests used:
# sheep erythrocytes = test: Haemolytic activity; format: cell-based; conditions: for haemolysis of sheep erythrocytes: 1 h; for Haemolytic activity (Minus PBS/average positive*100): sheep erythrocytes
# Method: (§1) Fresh human red blood cells (RBC) (Cambridge Bioscience, UK) and defibrinated sheep erythrocytes (Oxoid Ltd. Hampshire, UK) were washed 3 times with PBS, centrifuged for 5 min at 500 rpm between each wash and resuspended to 4% (v/v) in PBS. […] The percentage of haemolysis was calculated according to the equation: (A450 peptide solution − A450 PBS)/ (A450 0.1% Triton X-100 − A450 PBS) × 100. The therapeutic index (T.I.) was calculated as the ratio of the minimum haemolytic concentration ((MHC)- causing 5% haemolysis to human erythrocytes) to the minimum inhibitory concentration (MICGM+) [46]. The MICGM+ was the minimum inhibitory concentration of the peptide against Gram-positive bacterial strains after the geometric mean was calculated.
# S. aureus strains = format: cell-based, Staphylococcus aureus
# [1] = test system: drug resistant A. baumannii isolates; format: cell-based, Acinetobacter baumannii
# Method: MICs against a range of clinically important Gram-positive and Gram-negative bacteria strains including methicillin-sensitive Staphylococcus aureus (MSSA) RN4220 epidemic methicillin-resistant S. aureus-15 (EMRSA-15), methicillin-resistant S. aureus USA300 (MRSA USA300), Bacillus cereus, Enterococcus faecalis JH2–2, Escherichia coli K12, Salmonella enterica serovar Typhimurium SL1344, P. aeruginosa PAO1, and hospital isolates of Acinetobacter baummannii were determined in quadruplicate by a modified microdilution broth method [64] with a final bacterial inoculum concentration of 5 × 10^5 CFU/mL utilised as the test organisms. Cation-adjusted Mueller Hinton (MH) broth was innoclated overnight with a single colony of the tested microorganisms, subsequently grown for 16–24 h with shaking at 225 rpm, and further diluted in the same broth to a final concentration of 5 × 10^5 CFU/mL. The bacterial suspension was added to sterile U-bottomed 96-well plates, and the peptides and control antibiotics to be tested were dissolved in sterile distilled water and serially diluted in the wells. The MICs were recorded as the lowest peptide concentration that inhibited growth after incubation for 18 h [65]. […]
# human red blood cells = test: Haemolytic activity; format: cell-based; conditions: human RBC, CTAB control
# Method: as §1
Compound,haemolysis of sheep erythrocytes (sheep erythrocytes; 16 μg/mL) [%],haemolysis of sheep erythrocytes (sheep erythrocytes; 24 μg/mL) [%],"Haemolytic activity (Minus PBS/average positive*100) (sheep erythrocytes; 1x MIC, mean)","Haemolytic activity (Minus PBS/average positive*100) (sheep erythrocytes; 1x MIC, replicate 1)","Haemolytic activity (Minus PBS/average positive*100) (sheep erythrocytes; 1x MIC, replicate 2)","Haemolytic activity (Minus PBS/average positive*100) (sheep erythrocytes; 1x MIC, replicate 3)","Haemolytic activity (Minus PBS/average positive*100) (sheep erythrocytes; 1x MIC, replicate 4)","Haemolytic activity (Minus PBS/average positive*100) (sheep erythrocytes; 2x MIC, mean)","Haemolytic activity (Minus PBS/average positive*100) (sheep erythrocytes; 2x MIC, replicate 1)","Haemolytic activity (Minus PBS/average positive*100) (sheep erythrocytes; 2x MIC, replicate 2)","Haemolytic activity (Minus PBS/average positive*100) (sheep erythrocytes; 2x MIC, replicate 3)","Haemolytic activity (Minus PBS/average positive*100) (sheep erythrocytes; 2x MIC, replicate 4)","Haemolytic activity (Minus PBS/average positive*100) (sheep erythrocytes; 3x MIC, mean)","Haemolytic activity (Minus PBS/average positive*100) (sheep erythrocytes; 3x MIC, replicate 1)","Haemolytic activity (Minus PBS/average positive*100) (sheep erythrocytes; 3x MIC, replicate 2)","Haemolytic activity (Minus PBS/average positive*100) (sheep erythrocytes; 3x MIC, replicate 3)","Haemolytic activity (Minus PBS/average positive*100) (sheep erythrocytes; 3x MIC, replicate 4)",MIC against S. aureus strains (S. aureus strains) [µg/mL],MIC against drug resistant A. baumannii isolates [1] [µg/mL],Haemolytic (human red blood cells)
GIVAWFWRLAR [Lubelisin],~20,~30,12.8836,12.4097,12.5903,11.8682,14.6661,18.8177,17.1029,22.6986,19.9007,15.5686,33.7319,34.2509,33.1679,33.7094,33.7996,8,128,–
CCCCCCCCCCCCCCCC[N+](C)(C)C.[Br-] [CTAB],–,–,–,–,–,–,–,–,–,–,–,–,–,–,–,–,–,–,–,100
